Source: article PMC11721672, “Design, Structure–Activity Relationships, and Computational Modeling Studies of a Series of α-Helix Biased, Ultra-Short Glucagon-like Peptide-1 Receptor Agonists” (Molecules, 2024)
Read-outs that look alike come from different tables or passages of the source. Square brackets hold non-standard residues; d marks the D form. Peptide text beside a SMILES is read from it. Bip = N[C@@H](Cc1ccc(-c2ccccc2)cc1)C(=O)O; αMePhe(2-F) = C[C@](N)(Cc1ccccc1F)C(=O)O; Phe(2-F) = N[C@@H](Cc1ccccc1F)C(=O)O; Aib = CC(C)(N)C(=O)O

Biological target: T1, hGLP1 receptor (Homo sapiens, UniProt P43220)
T1 construct: expressed in transfected cells; host or cells: HEK (human embryonic kidney) cells co-expressing hGLP1 receptor and CRE-Luciferase
T1 sequence (P43220 24-463): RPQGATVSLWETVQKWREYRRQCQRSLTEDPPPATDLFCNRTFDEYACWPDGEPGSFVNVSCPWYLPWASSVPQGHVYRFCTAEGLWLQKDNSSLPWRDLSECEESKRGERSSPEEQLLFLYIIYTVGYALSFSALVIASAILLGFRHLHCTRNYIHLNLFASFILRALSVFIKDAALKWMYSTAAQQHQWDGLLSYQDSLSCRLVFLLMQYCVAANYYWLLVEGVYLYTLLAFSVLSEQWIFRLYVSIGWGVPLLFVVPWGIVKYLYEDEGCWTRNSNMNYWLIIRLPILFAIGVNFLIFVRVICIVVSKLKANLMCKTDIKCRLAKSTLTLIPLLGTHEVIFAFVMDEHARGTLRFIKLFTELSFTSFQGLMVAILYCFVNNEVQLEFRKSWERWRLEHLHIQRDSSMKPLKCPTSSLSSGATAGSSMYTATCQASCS
Assay: GLP-1 receptor agonism assay (HTRF cAMP, HEK cells co-expressing hGLP1 receptor and CRE-Luciferase)
Type: cell-based
Settings: for Emax: HEK293, Table 6 potency profile; for decreased potency (Aib/Ala comparison): versus respective parent analog
Experimental: Human embryonic kidney cells (HEK) co-expressing the hGLP1 receptor and CRE-Luciferase construct were used to determine agonist potency in this assay. The cells were thawed briefly at 37 °C, transferred to a sterile tube, and re-suspended in complete media at 37 °C. Cells were centrifuged at 1000 rpm for 5 min and collected; the cells were then re-suspended in an assay buffer consisting of Dulbecco’s phosphate-buffered saline (DPBS, GIBCO) with 500 μM of the phosphodiesterase inhibitor 3-isobutyl-1-methylxanthine (IBMX). The assay medium had 0% serum albumin, as specified in Table 1, Table 2, Table 3 and Table 4. The optimal cell density was determined to be 1000 cells/well. Cells were added to wells in 384-well plates containing appropriate pre-prepared dilutions of compounds (test peptides or reference compound exendin-4), sealed, and incubated with CO2 for 30 min. Test peptide solutions were diluted from 10 mM stock solutions to be used in two separate runs (performed in triplicate) from a maximal concentration of 1.0 μM, with 11 concentrations tested for each peptide using serial 1:3 dilution from this maximal concentration. […] The agonist assay was a homogeneous time-resolved fluorescence (HTRF) assay (Cisbio). Following incubation of the cells for 30 min with test or reference peptides, 5 μL of the cAMP acceptor cAMP-d2, prepared previously as a working solution from frozen stock (1:20 dilution), was added to each well of the assay plate along with 5 μL of anti-cAMP antibody-cryptate working solution (diluted 1:20 from frozen stock). The wells were incubated for 1 h at room temperature, and fluorescence was then read at 665 and 615 nm with an Envision reader with a TRF laser. Data were saved and analyzed using Prism software (GraphPad). Concentration–response analysis was performed using 4-parameter logistic fits of the resulting data, and EC50 values were obtained for each test and reference compound.

[1] = Table 2, Ala-scanning, 0% HSA, >1000 nM = out of range, read-out: cAMP EC50
[2] = Table 4, Ala-scan peptides, 0% HSA, read-out: pEC50 (converted)
[3] = Table 1, Phe6 modifications, 0% HSA, average of two independent experiments in triplicate (RXL-3039 tested once), read-out: cAMP EC50

Q: What does the source list for `C[C@H](NC(=O)[C@H](Cc1ccccc1F)NC(=O)[C@@H](NC(=O)CNC(=O)[C@H](CCC(=O)O)NC(=O)C(C)(C)NC(=O)[C@@H](N)Cc1c[nH]cn1)[C@@H](C)O)C(=O)N[C@@H](CO)C(=O)N[C@@H](CC(=O)O)C(=O)N[C@@H](Cc1ccc(-c2ccccc2)cc1)C(=O)N[C@@H](Cc1ccc(-c2ccccc2)cc1)C(N)=O` [RXL-3005, His-Aib-Glu-Gly-Thr-Phe(2-F)-Ala-Ser-Asp-Bip-Bip-NH2] (H-H[Aib]EGT[Phe(2-F)]ASD[Bip][Bip]-NH2)?
A: Emax: 102%; EC50 [1]: 0.0475 µM; EC50 [2]: 0.0214 µM

Q: Which results are given for `C[C@@H](O)[C@H](NC(=O)CNC(=O)[C@H](CCC(=O)O)NC(=O)C(C)(C)NC(=O)[C@@H](N)Cc1c[nH]cn1)C(=O)N[C@@H](Cc1ccccc1Br)C(=O)N[C@H](C(=O)N[C@@H](CO)C(=O)N[C@@H](CC(=O)O)C(=O)N[C@@H](Cc1ccc(-c2ccccc2)cc1)C(=O)N[C@@H](Cc1ccc(-c2ccccc2)cc1)C(N)=O)[C@@H](C)O` [RXL-3010, His-Aib-Glu-Gly-Thr-Phe(2-Br)-Thr-Ser-Asp-Bip-Bip-NH2]?
A: Emax: 121%; EC50 [3]: 0.00385 µM

Q: Which results are given for `C[C@H](NC(=O)[C@@H](N)Cc1c[nH]cn1)C(=O)N[C@@H](CCC(=O)O)C(=O)NCC(=O)N[C@H](C(=O)N[C@@H](Cc1ccccc1F)C(=O)N[C@H](C(=O)N[C@@H](CO)C(=O)N[C@@H](CC(=O)O)C(=O)N[C@@H](Cc1ccc(-c2ccccc2)cc1)C(=O)N[C@@H](Cc1ccc(-c2ccccc2)cc1)C(N)=O)[C@@H](C)O)[C@@H](C)O` [RXL-3002, His-Ala-Glu-Gly-Thr-Phe(2-F)-Thr-Ser-Asp-Bip-Bip-NH2]?
A: Emax: 102%; EC50 [1]: 0.0002 µM

Q: With `C[C@@H](O)[C@H](NC(=O)CNC(=O)[C@H](CCC(=O)O)NC(=O)C(C)(C)NC(=O)[C@@H](N)Cc1c[nH]cn1)C(=O)N[C@@H](CCc1ccccc1)C(=O)N[C@H](C(=O)N[C@@H](CO)C(=O)N[C@@H](CC(=O)O)C(=O)N[C@@H](Cc1ccc(-c2ccccc2)cc1)C(=O)N[C@@H](Cc1ccc(-c2ccccc2)cc1)C(N)=O)[C@@H](C)O` [RXL-3019, His-Aib-Glu-Gly-Thr-hPhe-Thr-Ser-Asp-Bip-Bip-NH2] as the compound, how does the Emax read?
A: 110%

Q: What about the EC50 [3] of the same compound?
A: 0.016 µM

Q: What does the source list for `C[C@@H](O)[C@H](NC(=O)CNC(=O)[C@H](CCC(=O)O)NC(=O)C(C)(C)NC(=O)[C@@H](N)Cc1c[nH]cn1)C(=O)N[C@@H](Cc1ccc(-c2ccccc2)cc1)C(=O)N[C@H](C(=O)N[C@@H](CO)C(=O)N[C@@H](CC(=O)O)C(=O)N[C@@H](Cc1ccc(-c2ccccc2)cc1)C(=O)N[C@@H](Cc1ccc(-c2ccccc2)cc1)C(N)=O)[C@@H](C)O` [RXL-3024, His-Aib-Glu-Gly-Thr-Bip-Thr-Ser-Asp-Bip-Bip-NH2] (H-H[Aib]EGT[Bip]TSD[Bip][Bip]-NH2)?
A: Emax: 102%; EC50 [3]: 0.0108 µM

Q: With `C[C@H](NC(=O)C(C)(C)NC(=O)[C@@H](N)Cc1c[nH]cn1)C(=O)NCC(=O)N[C@H](C(=O)N[C@@H](Cc1ccccc1F)C(=O)N[C@H](C(=O)N[C@@H](CO)C(=O)N[C@@H](CC(=O)O)C(=O)N[C@@H](Cc1ccc(-c2ccccc2)cc1)C(=O)N[C@@H](Cc1ccc(-c2ccccc2)cc1)C(N)=O)[C@@H](C)O)[C@@H](C)O` [RXL-3003, His-Aib-Ala-Gly-Thr-Phe(2-F)-Thr-Ser-Asp-Bip-Bip-NH2] as the compound, how does the Emax read?
A: 108%

Q: What about the EC50 [1] of the same compound?
A: 0.0079 µM

Q: For `C[C@@H](O)[C@H](NC(=O)CNC(=O)[C@H](CCC(=O)O)NC(=O)C(C)(C)NC(=O)[C@@H](N)Cc1c[nH]cn1)C(=O)N[C@@H](Cc1c[nH]c2ccccc12)C(=O)N[C@H](C(=O)N[C@@H](CO)C(=O)N[C@@H](CC(=O)O)C(=O)N[C@@H](Cc1ccc(-c2ccccc2)cc1)C(=O)N[C@@H](Cc1ccc(-c2ccccc2)cc1)C(N)=O)[C@@H](C)O` [RXL-3023, His-Aib-Glu-Gly-Thr-Trp-Thr-Ser-Asp-Bip-Bip-NH2] (H-H[Aib]EGTWTSD[Bip][Bip]-NH2), which Emax is on record?
A: 106%

Q: What about the EC50 [3] of the same compound?
A: 0.0138 µM

Q: With `C[C@H](NC(=O)CNC(=O)[C@H](CCC(=O)O)NC(=O)C(C)(C)NC(=O)[C@@H](N)Cc1c[nH]cn1)C(=O)N[C@@H](Cc1ccccc1F)C(=O)N[C@H](C(=O)N[C@@H](CO)C(=O)N[C@@H](CC(=O)O)C(=O)N[C@@H](Cc1ccc(-c2ccccc2)cc1)C(=O)N[C@@H](Cc1ccc(-c2ccccc2)cc1)C(N)=O)[C@@H](C)O` [RXL-3004, His-Aib-Glu-Gly-Ala-Phe(2-F)-Thr-Ser-Asp-Bip-Bip-NH2] (H-H[Aib]EGA[Phe(2-F)]TSD[Bip][Bip]-NH2) as the compound, how does the Emax read?
A: 108%

Q: And the EC50 [1]?
A: 0.0077 µM

Q: What about the EC50 [2] of the same compound?
A: 0.00692 µM

Q: What does the source list for `C[C@@H](O)[C@H](NC(=O)CNC(=O)[C@H](CCC(=O)O)NC(=O)C(C)(C)NC(=O)[C@@H](N)Cc1c[nH]cn1)C(=O)N[C@@H](Cc1ccc(O)cc1)C(=O)N[C@H](C(=O)N[C@@H](CO)C(=O)N[C@@H](CC(=O)O)C(=O)N[C@@H](Cc1ccc(-c2ccccc2)cc1)C(=O)N[C@@H](Cc1ccc(-c2ccccc2)cc1)C(N)=O)[C@@H](C)O` [RXL-3021, His-Aib-Glu-Gly-Thr-Tyr-Thr-Ser-Asp-Bip-Bip-NH2] (H-H[Aib]EGTYTSD[Bip][Bip]-NH2)?
A: Emax: 100%; EC50 [3]: 0.003 µM

Q: Which Emax does the source give for `C[C@@H](O)[C@H](NC(=O)CNC(=O)[C@H](CCC(=O)O)NC(=O)C(C)(C)NC(=O)[C@@H](N)Cc1c[nH]cn1)C(=O)N[C@@H](Cc1cccc(C(F)(F)F)c1)C(=O)N[C@H](C(=O)N[C@@H](CO)C(=O)N[C@@H](CC(=O)O)C(=O)N[C@@H](Cc1ccc(-c2ccccc2)cc1)C(=O)N[C@@H](Cc1ccc(-c2ccccc2)cc1)C(N)=O)[C@@H](C)O` [RXL-3016, His-Aib-Glu-Gly-Thr-Phe(3-CF3)-Thr-Ser-Asp-Bip-Bip-NH2] here?
A: 109%

Q: And the EC50 [3]?
A: 0.0139 µM

Q: For `C[C@H](NC(=O)[C@H](Cc1ccc(-c2ccccc2)cc1)NC(=O)[C@H](CC(=O)O)NC(=O)[C@H](CO)NC(=O)[C@@H](NC(=O)[C@H](Cc1ccccc1F)NC(=O)[C@@H](NC(=O)CNC(=O)[C@H](CCC(=O)O)NC(=O)C(C)(C)NC(=O)[C@@H](N)Cc1c[nH]cn1)[C@@H](C)O)[C@@H](C)O)C(N)=O` [RXL-3009, His-Aib-Glu-Gly-Thr-Phe(2-F)-Thr-Ser-Asp-Bip-Ala-NH2], which “decreased potency by Ala substitution in RXL-3000” value (Ala-scanning, versus RXL-3000) is on record?
A: > 1000 fold

Q: And the Emax?
A: 43.2%

Q: What about the EC50 [1] of the same compound?
A: > 1 µM

Q: And the “decreased potency (Aib/Ala comparison)” value?
A: 10,000 fold

Q: `C[C@H](NC(=O)[C@H](CCC(=O)O)NC(=O)C(C)(C)NC(=O)[C@@H](N)Cc1c[nH]cn1)C(=O)N[C@H](C(=O)N[C@@H](Cc1ccccc1F)C(=O)N[C@H](C(=O)N[C@@H](CO)C(=O)N[C@@H](CC(=O)O)C(=O)N[C@@H](Cc1ccc(-c2ccccc2)cc1)C(=O)N[C@@H](Cc1ccc(-c2ccccc2)cc1)C(N)=O)[C@@H](C)O)[C@@H](C)O` [RXL-3037, His-Aib-Glu-Ala-Thr-Phe(2-F)-Thr-Ser-Asp-Bip-Bip-NH2] (H-H[Aib]EAT[Phe(2-F)]TSD[Bip][Bip]-NH2) was tested. Which Emax did it give?
A: 73.8%

Q: What about the EC50 [1] of the same compound?
A: 0.21 µM

Q: What about the pEC50 (Table 4, Ala-scan peptides, 0% HSA) of the same compound?
A: 6.46

Q: What about the “decreased potency (Aib/Ala comparison)” value of the same compound?
A: 2000 fold

Q: With `C[C@@H](O)[C@H](NC(=O)CNC(=O)[C@H](CCC(=O)O)NC(=O)C(C)(C)NC(=O)[C@@H](N)Cc1c[nH]cn1)C(=O)N[C@@](C)(Cc1ccccc1F)C(=O)N[C@H](C(=O)N[C@@H](CO)C(=O)N[C@@H](CC(=O)O)C(=O)N[C@@H](Cc1ccc(-c2ccccc2)cc1)C(=O)NC(C)(C)C(N)=O)[C@@H](C)O` [RXL-3052, His-Aib-Glu-Gly-Thr-α-Me-Phe(2-F)-Thr-Ser-Asp-Bip-Aib-NH2] (H-H[Aib]EGT[αMePhe(2-F)]TSD[Bip][Aib]-NH2) as the compound, how does the “rescue of potency by Aib versus Ala substitution” value (Aib analog versus Ala analog at the same position) read?
A: more than 100 fold

Q: And the Emax?
A: 112%

Q: And the “dpEC50 (contribution of Cα-methylation)” value (dpEC50 = pEC50 (Aib) − pEC50 (Ala) − 0.97, Aib peptide versus the Ala peptide of the same line, 0% HSA)?
A: 1.11
